Results: ChEMBL document CHEMBL3875187, “Structure-activity relationship study of a small cyclic peptide H-c[Lys-Pro-Glu]-Arg-OH: a potent inhibitor of Vascular Endothelial Growth Factor interaction with Neuropilin-1” (Bioorg Med Chem, 2017)
Values belong to the compound of their own block, whether it stands above or below them. Positions of bridges follow the written chain, without caps; N, C: chain ends. Non-standard residues stand in square brackets, D forms with d. Residues, ends and D or L forms follow the SMILES beside them. Orn = NCCC[C@H](N)C(=O)O

Experiments:
[1] = biological target: Neuropilin-1 (Rattus norvegicus) (UniProt Q9QWJ9); assay: Inhibition of biotin-labelled VEGF165 binding to rat recombinant NRP-1/Fc chimeric protein at 10 uM incubated for overnight by competitive ELISA method relative to control
[2] = biological target: Neuropilin-1 (Rattus norvegicus) (UniProt Q9QWJ9); assay: Inhibition of biotin-labelled VEGF165 binding to rat recombinant NRP-1/Fc chimeric protein at 3 uM incubated for overnight by competitive ELISA method relative to control
[3] = biological target: Neuropilin-1 (Rattus norvegicus) (UniProt Q9QWJ9); assay: Inhibition of biotin labelled VEGF165 binding to rat recombinant NRP-1/Fc chimeric protein at 0.3 uM incubated for overnight by competitive ELISA method relative to control
[4] = biological target: Neuropilin-1 (Rattus norvegicus) (UniProt Q9QWJ9); assay: Inhibition of biotin-labelled VEGF165 binding to rat recombinant NRP-1/Fc chimeric protein at 1 uM incubated for overnight by competitive ELISA method relative to control
Neuropilin-1 = Neuropilin-1 (Rattus norvegicus, UniProt Q9QWJ9); assay: Inhibition of biotin labelled VEGF165 binding to rat recombinant NRP-1/Fc chimeric protein incubated for overnight by competitive ELISA method
[5] = Cytotoxicity against human MDA-MB-231 cells at 10 to 1000 uM measured after 24 to 96 hrs by MTS assay; assay type: toxicity, cell-based; conditions: mda-mb-231, 1000 µM
[6] = Cytotoxicity against HUVEC at 10 to 1000 uM measured after 24 to 96 hrs by MTS assay; assay type: toxicity, cell-based; conditions: human

Structure (SMILES): N=C(N)NCCC[C@H](NC(=O)[C@@H]1CCCCNC(=O)CC[C@H](N)C(=O)N2CCC[C@H]2C(=O)N1)C(=O)O (H-EPKR-OH; lactam 1-3)
inhibition [1]: 89%
inhibition [2]: 85.4%
inhibition [3]: 68.3%
inhibition [4]: 79%
Activity [5]: Non-Toxic
IC50 (Neuropilin-1; read-out: IC50): 160 nM
Activity [6]: Non-Toxic

Structure (SMILES): N=C(N)NCCC[C@H](NC(=O)[C@@H]1CC(=O)NCCCC[C@H](N)C(=O)N2CCC[C@H]2C(=O)N1)C(=O)O (H-KPDR-OH; lactam 1-3)
inhibition [1]: 14.7%
inhibition [2]: 12.5%
inhibition [4]: 11.8%
IC50 (Neuropilin-1; read-out: IC50): > 10000 nM

Structure (SMILES): N=C(N)NCCC[C@H](NC(=O)[C@@H]1CCC(=O)NCCCC[C@@H](N)C(=O)N2CCC[C@H]2C(=O)N1)C(=O)O (H-[dK]PER-OH; lactam 1-3)
inhibition [1]: 4%
inhibition [2]: 2.3%
inhibition [4]: 1.1%
IC50 (Neuropilin-1; read-out: IC50): > 10000 nM

More lines, now with the values ahead:

inhibition [1]: 86.8%
inhibition [2]: 72.2%
inhibition [3]: 30.1%
inhibition [4]: 46.6%
IC50 (Neuropilin-1; read-out: IC50): 890 nM
IC50 (Neuropilin-1; read-out: pIC50 (converted)): 1000 nM
Structure (SMILES): N=C(N)NCCC[C@H](NC(=O)CC[C@@H]1NC(=O)[C@H]2CCCN2C(=O)[C@@H](N)CCCCNC(=O)CC[C@@H](C(=O)N[C@@H](CCCNC(=N)N)C(=O)O)NC(=O)[C@H]2CCCN2C(=O)[C@H](CCCCN)NC1=O)C(=O)O

inhibition [1]: 46.6%
inhibition [2]: 35.4%
inhibition [3]: 14.6%
inhibition [4]: 27.8%
IC50 (Neuropilin-1; read-out: IC50): > 10000 nM
Structure (SMILES): N=C(N)NCCC[C@H](NC(=O)[C@@H]1CCC(=O)NCCC[C@H](N)C(=O)N2CCC[C@H]2C(=O)N1)C(=O)O (H-[Orn]PER-OH; lactam 1-3)
